Laboratory results as given in ChEMBL document CHEMBL1154241, “A QSAR study on relationship between structure of sulfonamides and their carbonic anhydrase inhibitory activity using the eigenvalue (EVA) method” (Eur J Med Chem, 2009).

Biological target: Carbonic anhydrase 2 (Homo sapiens) (UniProt P00918)
Description: Inhibition of carbonic anhydrase 2 assessed as inhibition of carbon dioxide hydration

logKi	SMILES
2.46	NS(=O)(=O)c1ccc(/N=C/C2=C(Cl)CCC=C2)cc1
2.25	NS(=O)(=O)c1ccc(/N=C/c2cccc([N+](=O)[O-])c2)cc1
2.48	NS(=O)(=O)c1ccc(C/N=C/c2ccccc2[N+](=O)[O-])cc1
2.45	NS(=O)(=O)c1ccc(/N=C/c2ccc(Cl)cc2)cc1
2.11	NS(=O)(=O)c1ccc(C/N=C/c2ccccc2O)cc1
2.15	NS(=O)(=O)c1ccc(C/N=C/c2ccc([N+](=O)[O-])cc2)cc1 (stereo in doubt; 60)
2.04	CC(=O)Nc1ccc(/C=N/c2ccc(S(N)(=O)=O)cc2)cc1
2.08	COc1ccc(/C=N/Cc2ccc(S(N)(=O)=O)cc2)cc1
1.3	NS(=O)(=O)c1ccc(C/N=C/c2ccc([N+](=O)[O-])cc2)cc1 (stereo in doubt; 45)
1.7	NS(=O)(=O)c1ccc(/N=C/c2ccc([N+](=O)[O-])cc2)cc1
2.23	COc1ccccc1/C=N/c1ccc(S(N)(=O)=O)cc1
1.95	NS(=O)(=O)c1ccc(C/N=C/c2ccccc2Cl)cc1
2	COc1cc(/C=N/c2ccc(S(N)(=O)=O)cc2)ccc1C(C)=O
1.6	CC(=O)Nc1ccc(/C=N/CCc2ccc(S(C)(=O)=O)cc2)cc1
1.7	NS(=O)(=O)c1ccc(/N=C/C=C/c2ccccc2)cc1
1.6	CS(=O)(=O)/N=C/C1=C(O)CCC=C1
2.32	CS(=O)(=O)c1ccc(CC/N=C/c2ccccc2Cl)cc1
2.04	CC(=O)Nc1ccc(/C=N/Cc2ccc(S(N)(=O)=O)cc2)cc1
